For 20 compounds, remaining activity and IC50 results are on record in patent US20230183219A1, “CONDENSED SUBSTITUTED HYDROPYRROLES AS ANTAGONISTS OF THE MUSCARINIC ACETYLCHOLINE RECEPTOR M4” (Vanderbilt University, priority 2020, published 2023).

The term IC50 denotes the concentration that gives 50% inhibition.

In the test the target is T1, Human M4 (Homo sapiens, UniProt P08173).
T1 construct: Human or rat M4 cDNA, along with the chimeric G protein Gqi5, were transfected into Chinese hamster ovary (CHO-K1) cells; expressed in transfected cells; host or cells: CHO-K1 (Chinese hamster ovary, ATCC), stably co-expressing Gqi5
T1 sequence (P08173 1-479): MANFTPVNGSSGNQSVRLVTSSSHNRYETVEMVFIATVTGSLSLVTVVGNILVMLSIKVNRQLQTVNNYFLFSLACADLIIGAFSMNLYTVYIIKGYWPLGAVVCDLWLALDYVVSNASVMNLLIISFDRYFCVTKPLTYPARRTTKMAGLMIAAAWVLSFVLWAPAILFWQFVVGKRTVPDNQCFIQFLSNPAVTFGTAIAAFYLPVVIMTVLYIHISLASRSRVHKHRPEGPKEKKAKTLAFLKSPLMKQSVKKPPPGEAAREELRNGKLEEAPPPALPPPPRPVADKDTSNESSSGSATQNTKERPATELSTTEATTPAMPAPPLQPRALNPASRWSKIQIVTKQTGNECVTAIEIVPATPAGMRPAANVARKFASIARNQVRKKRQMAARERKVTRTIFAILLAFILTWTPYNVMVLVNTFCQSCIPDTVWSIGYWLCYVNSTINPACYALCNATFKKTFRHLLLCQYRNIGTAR
Put plainly: mAChR M4 cell-based functional assay (calcium flux, decrease of EC80 acetylcholine response). Conditions: for remaining activity at 30 µM: % ACh maximum at 30 μM, read-out: Human M4 Emin; for IC50: M4/Gqi5/CHO-K1 cells, decrease of response to EC80 acetylcholine. The gist of the method:
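IC50 reflects inhibition of an EC80 acetylcholine calcium response, fitted by four-parameter logistic equation. Fluo-4-loaded M4/Gqi5 CHO-K1 cells received compound (10-point, 1:3 series) 2 s into the FDSS read, then EC20 acetylcholine at 143 s and EC80 at 268 s.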
Background: Calcium assays in cells follow changes in intracellular calcium, usually with a dye or a luminescent sensor.

As for `COc1ccc(-c2cc(C(F)(F)F)c(N[C@H]3C[C@@H]4CN(CC5CCOCC5)C[C@@H]4C3)nn2)c(F)c1F` [Example 62, (3aR,5s,6aS)-N-(6-(2,3-difluoro-4-methoxyphenyl)-4-(trifluoromethyl)pyridazin-3-yl)-2-((tetrahydro-2H-pyran-4-yl)methyl)octahydro-cyclopenta[c]pyrrol-5-amine], the remaining activity at 30 µM amounted to 3% and the IC50 was 258 nM.
For `Cc1ccc(F)cc1-c1cc(C#N)c(N[C@H]2C[C@@H]3CN(C[C@@H]4COCCO4)C[C@@H]3C2)nn1` [Example 150, 3-(((3aR,5s,6aS)-2-(((R)-1,4-dioxan-2-yl)methyl)octahydro-cyclopenta[c]pyrrol-5-yl)amino)-6-(5-fluoro-2-methylphenyl)pyridazine-4-carbonitrile], the remaining activity at 30 µM turned out to be 3% and the IC50 turned out to be 30.5 nM.
For `CCOc1ccc(F)cc1-c1cc(C(F)(F)F)c(N[C@H]2C[C@@H]3CN(CC4CCOCC4)C[C@@H]3C2)nn1` [Example 73, (3aR,5s,6aS)-N-(6-(2-ethoxy-5-fluorophenyl)-4-(trifluoromethyl)pyridazin-3-yl)-2-((tetrahydro-2H-pyran-4-yl)methyl)octahydro-cyclopenta[c]pyrrol-5-amine], in that order: 3% and 201 nM.
In the same order, the values of `COc1ccc(F)cc1-c1cc(C(F)(F)F)c(N[C@H]2C[C@@H]3CN(CC4CCOCC4)C[C@@H]3C2)nn1` [Example 49, (3aR,5s,6aS)-N-(6-(5-fluoro-2-methoxyphenyl)-4-(trifluoromethyl)pyridazin-3-yl)-2-((tetrahydro-2H-pyran-4-yl)methyl)octahydro-cyclopenta[c]pyrrol-5-amine] are 3% and 94.3 nM.
In the same order, the values of `Cc1ccc(F)cc1-c1cc(C(F)(F)F)c(N[C@H]2C[C@@H]3CN(Cc4ccccn4)C[C@@H]3C2)nn1` [Example 103, (3aR,5s,6aS)-N-(6-(5-fluoro-2-methylphenyl)-4-(trifluoromethyl)pyridazin-3-yl)-2-(pyridin-2-ylmethyl)octahydro-cyclopenta[c]pyrrol-5-amine] are 3% and 95.7 nM.
As to `Cc1ccc(F)cc1-c1cc(C#N)c(N[C@H]2C[C@@H]3CN(C[C@@H]4CC5CCC4O5)C[C@@H]3C2)nn1` (stereo partly drawn) [Example 147, 3-(((3aR,5s,6aS)-2-(((2S)-7-oxabicyclo[2.2.1]heptan-2-yl)methyl)octahydro-cyclopenta[c]pyrrol-5-yl)amino)-6-(5-fluoro-2-methylphenyl)pyridazine-4-carbonitrile], the remaining activity at 30 µM amounted to 5% and the IC50 worked out at 0.8 nM.
In the same order, the values of `Cn1cc2cc(-c3cc(C#N)c(N[C@H]4C[C@@H]5CN(C[C@@H]6COCCO6)C[C@@H]5C4)nn3)ccc2n1` [Example 157, 3-(((3aR,5s,6aS)-2-(((R)-1,4-dioxan-2-yl)methyl)octahydro-cyclopenta[c]pyrrol-5-yl)amino)-6-(2-methyl-2H-indazol-5-yl)pyridazine-4-carbonitrile] are 5% and 54.9 nM.
In the same order, the values of `Cn1cc2cc(-c3cnc(N[C@H]4C[C@@H]5CN(CCC(C)(C)C)C[C@@H]5C4)nc3)ccc2n1` [Example 14, (3aR,5s,6aS)-2-(3,3-dimethyl-butyl)-N-(5-(2-methyl-2H-indazol-5-yl)pyrimidin-2-yl)octahydro-cyclopenta[c]pyrrol-5-amine] are 4% and 394 nM.
For the compound `FC(F)(F)c1ccccc1-c1cc(C(F)(F)F)c(N[C@H]2C[C@@H]3CN(CC4CCOCC4)C[C@@H]3C2)nn1` [Example 41, (3aR,5s,6aS)-2-((tetrahydro-2H-pyran-4-yl)methyl)-N-(4-(trifluoromethyl)-6-(2-(trifluoromethyl)phenyl)pyridazin-3-yl)octahydro-cyclopenta[c]pyrrol-5-amine], the remaining activity at 30 µM is 3% and the IC50 is 13.6 nM.
For `Cc1ccc(F)cc1-c1cc(C(F)(F)F)c(N[C@H]2C[C@@H]3CN(C[C@H]4CCOC4)C[C@@H]3C2)nn1` [Example 31, (3aR,5s,6aS)-N-(6-(5-fluoro-2-methylphenyl)-4-(trifluoromethyl)pyridazin-3-yl)-2-(((R)-tetrahydrofuran-3-yl)methyl)octahydro-cyclopenta[c]pyrrol-5-amine], in that order: 5% and 130 nM.
In the same order, the values of `O=C1Cc2cc(-c3cc(C(F)(F)F)c(N[C@H]4C[C@@H]5CN(CC6CCOCC6)C[C@@H]5C4)nn3)ccc2N1` [Example 63, 5-(6-(((3aR,5s,6aS)-2-((tetrahydro-2H-pyran-4-yl)methyl)octahydro-cyclopenta[c]pyrrol-5-yl)amino)-5-(trifluoro-methyl)pyridazin-3-yl)indolin-2-one] are 3% and 95.6 nM.
In the same order, the values of `[2H]C([2H])([2H])N(c1cc(C(F)(F)F)c(-c2cc(F)ccc2C)nn1)[C@H]1C[C@@H]2CN(CC3CCOCC3)C[C@@H]2C1` [Example 131, (3aR,5s,6aS)-N-(6-(5-fluoro-2-methylphenyl)-5-(trifluoromethyl)pyridazin-3-yl)-N-(methyl-d3)-2-((tetrahydro-2H-pyran-4-yl)methyl)octahydro-cyclopenta[c]pyrrol-5-amine] are 2% and 60.3 nM.
Consider `[2H]C([2H])([C@H]1CCOC1)N1C[C@H]2C[C@H](Nc3nnc(-c4cc(C)ccc4C)cc3C(F)(F)F)C[C@H]2C1` [Example 116, (3aR,5s,6aS)-N-(6-(2,5-dimethylphenyl)-4-(trifluoro-methyl)pyridazin-3-yl)-2-(((R)-tetrahydrofuran-3-yl)methyl-d2)octahydro-cyclopenta[c]pyrrol-5-amine], for which the remaining activity at 30 µM was 3% and the IC50 was determined as 266 nM.
In the same order, the values of `Cn1cc2cc(-c3cc(C(F)(F)F)c(N[C@H]4C[C@@H]5CN(Cc6ccccn6)C[C@@H]5C4)nn3)ccc2n1` [Example 106, (3aR,5s,6aS)-N-(6-(2-methyl-2H-indazol-5-yl)-4-(trifluoromethyl)pyridazin-3-yl)-2-(pyridin-2-ylmethyl)octahydro-cyclopenta[c]pyrrol-5-amine] are 4% and 274 nM.
For `Fc1cc(F)c(F)c(-c2cc(C(F)(F)F)c(N[C@H]3C[C@@H]4CN(CC5CCOCC5)C[C@@H]4C3)nn2)c1` [Example 43, (3aR,5s,6aS)-2-((tetrahydro-2H-pyran-4-yl)methyl)-N-(4-(trifluoromethyl)-6-(2,3,5-trifluorophenyl)pyridazin-3-yl)octahydro-cyclopenta[c]pyrrol-5-amine], in that order: 3% and 290 nM.
For `Cc1ccncc1-c1cc(C(F)(F)F)c(N[C@H]2C[C@@H]3CN(CC4CCOCC4)C[C@@H]3C2)nn1` [Example 67, (3aR,5s,6aS)-N-(6-(4-methylpyridin-3-yl)-4-(trifluoromethyl)pyridazin-3-yl)-2-((tetrahydro-2H-pyran-4-yl)methyl)octahydro-cyclopenta[c]pyrrol-5-amine], in that order: 3% and 133 nM.
As for `Cn1cc2cc(-c3cc(C(F)(F)F)c(N[C@H]4C[C@@H]5CN(C[C@H]6COCCO6)C[C@@H]5C4)nn3)ccc2n1` [Example 34, (3aR,5s,6aS)-2-(((S)-1,4-dioxan-2-yl)methyl)-N-(6-(2-methyl-2H-indazol-5-yl)-4-(trifluoromethyl)pyridazin-3-yl)octahydro-cyclopenta[c]pyrrol-5-amine], the remaining activity at 30 µM turned out to be 6% and the IC50 is 32.9 nM.
As for `Cc1ccc(C(F)(F)F)cc1-c1cc(C(F)(F)F)c(N[C@H]2C[C@@H]3CN(CC4CCOCC4)C[C@@H]3C2)nn1` [Example 53, (3aR,5s,6aS)-N-(6-(2-methyl-5-(trifluoromethyl)phenyl)-4-(trifluoromethyl)pyridazin-3-yl)-2-((tetrahydro-2H-pyran-4-yl)methyl)octahydro-cyclopenta[c]pyrrol-5-amine], the remaining activity at 30 µM turned out to be 3% and the IC50 is 315 nM.
For `Cc1ccc(F)cc1-c1cc(C(F)(F)F)c(N[C@H]2C[C@@H]3CN(CC4COCC4C)C[C@@H]3C2)nn1` (stereo partly drawn) [Example 29, (3aR,5s,6aS)-N-(6-(5-fluoro-2-methylphenyl)-4-(trifluoromethyl)pyridazin-3-yl)-2-((4-methyltetrahydro-furan-3-yl)methyl)octahydro-cyclopenta[c]pyrrol-5-amine], in that order: 5% and 52.3 nM.
For `Cc1ccc(-c2cc(C(F)(F)F)c(N[C@H]3C[C@@H]4CN(CC5CCOCC5)C[C@@H]4C3)nn2)c(C)c1` [Example 59, (3aR,5s,6aS)-N-(6-(2,4-dimethylphenyl)-4-(trifluoromethyl)pyridazin-3-yl)-2-((tetrahydro-2H-pyran-4-yl)methyl)octahydro-cyclopenta[c]pyrrol-5-amine], in that order: 3% and 67.7 nM.
